Assay results from PMC4890880 (ACS infectious diseases, 2016).
Counter-ions that a name gives are not always drawn. Like-named read-outs stand apart in the source and are kept apart here.

What was measured:
[1] = system: P. falciparum 3D7 parasites; assay: Asexual erythrocytic-stage SYBR Green I proliferation assay, 1536-well; type: cell-based, Plasmodium falciparum
[2] = system: Plasmodium berghei (Pb-Luc) exoerythrocytic-stage parasites; conditions: read-out: P. berghei (liver) IC50; Table S1, validation set of 50 antimalarials; Pb-Luc
[3] = system: Plasmodium berghei (Pb-Luc) exoerythrocytic-stage parasites; assay: microbe, parasite or virus in culture; conditions: for inhibition at 10 µM: read-out: PbLuc max inhibition (%) @ 10 uM
[4] = system: Plasmodium cynomolgi exoerythrocytic-stage small (hypnozoites) and large (liver stage schizonts) parasites; assay: P. cynomolgi liver assay in primary hepatocytes; conditions: Plasmodium cynomolgi, Hepatocyte
HepG2-A16-CD81EGFP cells [5] = assay: cells; conditions: Homo sapiens; for IC50: HepG2, read-out: Tox IC50; for inhibition at 50 µM: HepG2, read-out: Tox max inhibition (%) @ 50 uM; for inhibition at 10 µM: HepG2, read-out: Tox max inhibition (%) @ 10 uM
[6] = target: QuantiLum Recombinant Luciferase (Photinus pyralis, UniProt P08659); assay: Bioluminescence quantification of compound luciferase inhibition; conditions: for Emax: read-out: LucInhib max inhibition
Sequence of QuantiLum Recombinant Luciferase (P08659 whole entry): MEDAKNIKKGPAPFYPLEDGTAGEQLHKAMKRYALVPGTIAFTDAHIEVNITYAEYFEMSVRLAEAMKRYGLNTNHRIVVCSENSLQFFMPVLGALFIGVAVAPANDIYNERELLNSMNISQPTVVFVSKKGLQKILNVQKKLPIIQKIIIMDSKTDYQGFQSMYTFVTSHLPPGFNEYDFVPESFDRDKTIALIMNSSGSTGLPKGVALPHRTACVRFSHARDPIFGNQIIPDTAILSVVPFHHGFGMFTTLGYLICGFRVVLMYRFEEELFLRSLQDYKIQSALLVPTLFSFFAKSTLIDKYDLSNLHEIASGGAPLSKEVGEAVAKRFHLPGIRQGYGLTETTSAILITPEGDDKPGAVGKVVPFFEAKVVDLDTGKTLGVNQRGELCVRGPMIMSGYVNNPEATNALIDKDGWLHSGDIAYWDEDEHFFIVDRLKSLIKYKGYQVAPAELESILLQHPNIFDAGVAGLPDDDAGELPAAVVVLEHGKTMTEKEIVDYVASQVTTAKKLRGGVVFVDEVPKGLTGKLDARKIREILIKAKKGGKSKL

HepG2-A16-CD81EGFP cells [7] = assay: cells; conditions: Homo sapiens, HepG2, read-out: % inhibition
HepG2-A16-CD81EGFP cells [8] = conditions: human, 50 uM
HepG2-A16-CD81EGFP cells [9] = assay: cells; conditions: Homo sapiens, HepG2, read-out: % inhibition; remark: listed apart in the source
[10] = read-out: P. falciparum (blood) IC50, Table S1, validation set of 50 antimalarials
[11] = Plasmodium falciparum, 3D7, read-out: P. falciparum (blood) IC50, Table S1, validation set of 50 antimalarials
[12] = read-out: P. berghei (liver) IC50, Table S1, validation set of 50 antimalarials, Pb-Luc
[13] = read-out: Inhibition% @ 50 uM rep1
[14] = read-out: Inhibition% @ 50 uM rep2
[15] = read-out: PbLuc IC50, dose response, 1/3 dilutions, max conc. 10 or 50 uM, unit inferred
[16] = read-out: PbLuc max inhibition (%) @ 50 uM
[17] = read-out: % inhibition normalized to untreated control, Large
[18] = read-out: % inhibition normalized to untreated control, Small
[19] = HepG2, read-out: HepG2 Tox% @ 50 uM rep1
[20] = HepG2, read-out: HepG2 Tox% @ 50 uM rep2

Compound: C[C@]12CC[C@H](OS(=O)(=O)O)CC1=CC[C@@H]1[C@@H]2CC[C@]2(C)C(=O)CC[C@@H]12 [Dehydroepiandrosterone sulphate, reference compound]
- IC50 [1, 10]: > 62500 nM
- IC50 [2]: > 12500 nM

Compound: C[C@H]1c2cccc(O)c2C(O)=C2C(=O)[C@]3(O)C(O)=C(C(N)=O)C(=O)[C@@H](N(C)C)[C@@H]3[C@@H](O)[C@@H]21 [Doxycyclin, reference compound]
- IC50 [1, 10]: 8820 nM
- IC50 [2]: 11600 nM

Compound: O=CN(O)CCCP(=O)(O)O [Fosmidomycin, reference compound]
- IC50 [1, 11]: > 10000 nM
- IC50 [3, 12]: > 12500 nM

Compound: CCCCN(CCCC)CCC(O)c1cc2c(Cl)cc(Cl)cc2c2cc(C(F)(F)F)ccc12 (stereo not drawn) [Halofantrine, reference compound]
- IC50 [1, 11]: 1.5 nM
- IC50 [3, 12]: 2840 nM

Compound: O=C(Nc1ccc(-c2nc3cc(NC(=O)c4ccc(Cl)cc4)ccc3[nH]2)cc1)c1ccc(Cl)cc1 [MMV006962]
- inhibition at 50 µM [3, 13]: 103%
- inhibition at 50 µM [3, 14]: 103%
- IC50 [3, 15]: 501 nM
- inhibition at 50 µM [3, 16]: 99%
- inhibition at 0.1 µM [4, 17]: 34%
- inhibition at 1 µM [4, 17]: 25%
- inhibition at 10 µM [4, 17]: 10%
- inhibition at 0.1 µM [4, 18]: -8%
- inhibition at 1 µM [4, 18]: 11%
- inhibition at 10 µM [4, 18]: 17%
- cytotoxicity at 50 µM (HepG2-A16-CD81EGFP cells [5]; [19]): 96%
- IC50 (HepG2-A16-CD81EGFP cells [5]): 9200 nM
- inhibition at 50 µM (HepG2-A16-CD81EGFP cells [5]): 99%

Compound: COc1ccccc1CNC(=O)CCn1c(=O)[nH]c2ccsc2c1=O [MMV019066]
- inhibition at 50 µM [3, 13]: 94%
- inhibition at 50 µM [3, 14]: 95%
- IC50 [3, 15]: 56.1 nM
- inhibition at 10 µM [3]: 104%
- inhibition at 0.1 µM [4, 17]: 3%
- inhibition at 1 µM [4, 17]: -2%
- inhibition at 10 µM [4, 17]: 5%
- inhibition at 0.1 µM [4, 18]: 10%
- inhibition at 1 µM [4, 18]: 11%
- inhibition at 10 µM [4, 18]: 3%
- cytotoxicity at 50 µM (HepG2-A16-CD81EGFP cells [5]; [19]): -14%
- cytotoxicity at 50 µM (HepG2-A16-CD81EGFP cells [5]; [20]): -5.32%
- IC50 (HepG2-A16-CD81EGFP cells [5]): > 10000 nM
- inhibition at 10 µM (HepG2-A16-CD81EGFP cells [5]): -2.17%
- IC50 [6]: > 20000 nM
- Emax [6]: 21%

Compound: O=C(Nc1cccc(C(F)(F)F)c1)c1cc(Cl)ccc1O [MMV665807]
- inhibition at 50 µM [3, 13]: 103%
- inhibition at 50 µM [3, 14]: 103%
- IC50 [3, 15]: 210 nM
- inhibition at 50 µM [3, 16]: 101%
- inhibition at 0.1 µM [4, 17]: 6%
- inhibition at 1 µM [4, 17]: 10%
- inhibition at 10 µM [4, 17]: 12%
- inhibition at 0.1 µM [4, 18]: 17%
- inhibition at 1 µM [4, 18]: 34%
- inhibition at 10 µM [4, 18]: 24%
- cytotoxicity at 50 µM (HepG2-A16-CD81EGFP cells [5]; [19]): 98%
- cytotoxicity at 50 µM (HepG2-A16-CD81EGFP cells [5]; [20]): 99%
- IC50 (HepG2-A16-CD81EGFP cells [5]): 910 nM
- inhibition at 50 µM (HepG2-A16-CD81EGFP cells [5]): 94%

Compound: COc1ccc(C2=C(c3ccc(OC)cc3)C3(c4ccccc4)C(=O)C2(c2ccccc2)C2C(=O)N(c4ccc(C)cc4)C(=O)C23)cc1 (stereo not drawn) [MMV666101]
- inhibition at 50 µM [3, 13]: 96%
- inhibition at 50 µM [3, 14]: 100%
- IC50 [3, 15]: 201 nM
- inhibition at 10 µM [3]: 106%
- inhibition at 0.1 µM [4, 17]: 7%
- inhibition at 1 µM [4, 17]: 11%
- inhibition at 10 µM [4, 17]: 17%
- inhibition at 0.1 µM [4, 18]: 4%
- inhibition at 1 µM [4, 18]: 19%
- inhibition at 10 µM [4, 18]: 11%
- cytotoxicity at 50 µM (HepG2-A16-CD81EGFP cells [5]; [19]): 0.41%
- cytotoxicity at 50 µM (HepG2-A16-CD81EGFP cells [5]; [20]): 3.59%
- IC50 (HepG2-A16-CD81EGFP cells [5]): > 10000 nM
- inhibition at 10 µM (HepG2-A16-CD81EGFP cells [5]): 1.34%
- IC50 [6]: > 20000 nM
- Emax [6]: 18%

Compound: COCCN(C(=O)Cc1cccs1)C(C(=O)NCc1ccc(OC)cc1)c1ccc(C(C)C)cc1 (stereo not drawn) [MMV666105]
- inhibition at 50 µM (HepG2-A16-CD81EGFP cells [7]): 99.9%
- inhibition at 50 µM [3, 13]: 104%
- inhibition at 50 µM [3, 14]: 105%
- HepG2 Tox% @ 50 uM rep2 (HepG2-A16-CD81EGFP cells [8]): 100%
- inhibition at 50 µM (HepG2-A16-CD81EGFP cells [9]): 98.8%

Compound: CC(=O)N[C@@H](C(=O)O)C(C)(C)S [N-acetyl-D-penicillamine, reference compound]
- IC50 [1, 10]: > 62500 nM
- IC50 [2]: > 12500 nM

Compound: COc1cc(N[C@H](C)CCCN)c2nccc(C)c2c1Oc1ccc(Cl)c(Cl)c1 [NPC-1161B, reference compound]
- IC50 [1, 10]: 1320 nM
- IC50 [2]: 3550 nM

Compound: CC(C)(C)NCc1cc(Nc2ccnc3cc(Cl)ccc23)c2c(c1O)CCCC2 [Naphthoquine, reference compound]
- IC50 [1, 10]: 11.4 nM
- IC50 [2]: 391 nM

Compound: CCc1nc(N)nc(N)c1OCCCOc1ccccc1CCC(=O)O [P218.HCl, reference compound]
- IC50 [1, 10]: 0.4 nM
- IC50 [2]: 0.916 nM

Compound: Cc1cc(NS(=O)(=O)c2ccc(N)cc2)no1 [Sulfamethoxazole]
- IC50 [1, 11]: > 10000 nM

Compound: COc1cc(Cc2cnc(N)nc2N)cc(OC)c1OC [Trimethoprim]
- IC50 [1, 11]: 5640 nM

Compound: Trans-Mirincamycin [reference compound]
- IC50 [1, 10]: > 10000 nM
- IC50 [2]: > 12500 nM
